The IC50 is the point on the concentration scale where inhibition reaches its midpoint. One may read the Km as the substrate concentration at which the rate is half of its maximum. By Ki is commonly meant a dissociation constant, usually derived from enzyme kinetics or from competition with a known ligand.

Structures are written as SMILES.

These results are taken from patent publication US5714509A, “Inhibitors of bacterial sialidase and methods of making and using the same” (The University of Alabama, priority 1995, dated 1998).

Test [1] deals with influenza virus sialidase. The conditions noted are these: cited from earlier work; for IC50: read-out: IC50 for influenza virus sialidase inhibition.
Test [2] has as its target T1, bacterial sialidase (Micromonospora viridifaciens) (Micromonospora viridifaciens, UniProt Q02834).
T1 sequence (Q02834 38-647): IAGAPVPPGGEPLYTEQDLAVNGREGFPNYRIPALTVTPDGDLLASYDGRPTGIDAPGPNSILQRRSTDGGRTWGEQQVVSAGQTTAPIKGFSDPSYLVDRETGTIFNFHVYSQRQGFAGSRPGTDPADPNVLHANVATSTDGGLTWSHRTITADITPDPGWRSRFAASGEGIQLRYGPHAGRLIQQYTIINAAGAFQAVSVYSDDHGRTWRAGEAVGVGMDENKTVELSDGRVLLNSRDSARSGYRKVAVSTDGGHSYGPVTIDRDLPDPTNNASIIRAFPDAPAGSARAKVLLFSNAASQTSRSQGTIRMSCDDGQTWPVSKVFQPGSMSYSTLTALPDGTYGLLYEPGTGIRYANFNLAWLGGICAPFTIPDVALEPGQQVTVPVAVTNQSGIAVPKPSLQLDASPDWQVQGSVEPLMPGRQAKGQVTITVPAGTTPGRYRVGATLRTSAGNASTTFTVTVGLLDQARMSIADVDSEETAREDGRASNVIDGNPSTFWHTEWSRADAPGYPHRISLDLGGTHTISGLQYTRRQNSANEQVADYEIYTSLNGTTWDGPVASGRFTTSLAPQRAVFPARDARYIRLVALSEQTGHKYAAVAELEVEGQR
Put plainly: Inhibition of bacterial sialidase (Micromonospora viridifaciens), fluorescence assay with MUN. Format: biochemical. The conditions noted are these: 10 mM inhibitor, 0.1 mM MUN, pH 6.0, 37° C., 15 minutes.

The subject of test [3] is S. typhimurium sialidase. The conditions noted are these: substrate of S. typhimurium sialidase; cited from earlier work.
Test [4] concerns the target S. typhimurium sialidase. The conditions noted are these: cited from earlier work.

For `CC(=O)N[C@H]1[C@H]([C@H](O)[C@H](O)CO)OC(C(=O)O)=C[C@@H]1N=C(N)N` [4-guanidino-Neu5Ac2en], the “inhibition selectivity for influenza virus sialidase versus bacterial sialidases” value in test [1] (influenza virus versus bacterial sialidases) is “inhibition selectivity of 4-guanidino-Neu5Ac2en for influenza virus sialidase versus bacterial sialidases”.
Take `CC(=O)Nc1c(O)cc(C(=O)O)cc1[N+](=O)[O-]` [HNBA, 4-acetylamino-3-hydroxyl-5-nitro-benzoic acid]: the “inhibition of bacterial sialidase (in words)” value in test [2] is “inhibited bacterial sialidase with efficiencies similar to Neu5Ac2en”. The “inhibition of type A and B influenza virus sialidase (in words)” value in test [1] (both type A and B) is recorded as “potent inhibitors”. In test [1], the “inhibition of influenza virus sialidase (in words)” value was “millimolar” and the concentration for half-maximal inhibition (IC50) is ~10 mM.
As for `CC(=O)NC1C(O)CC(Oc2ccc3c(C)cc(=O)oc3c2)(C(=O)O)OC1C(O)C(O)CO` [MUN, 4-methylumbelliferyl-a-D-N-acetylneuraminic acid], in the test with S. typhimurium sialidase [3], the Km was 250 µM and the turnover number is 2,700 sec^-1.
On to `CC(=O)N[C@H]1[C@H]([C@H](O)[C@H](O)CO)OC(C(=O)O)=C[C@@H]1O` [Neu5Ac2en], for which the 50% inhibitory concentration (IC50) in test [1] is ~10 mM. Besides, on S. typhimurium sialidase [4], the inhibitory constant (Ki) was 0.38 mM.
Turning to `CC(=O)N[C@H]1[C@H]([C@H](O)[C@H](O)CO)OC(O)(C(=O)O)C[C@@H]1O` (stereo partly shown) [Neu5Ac], in the test with S. typhimurium sialidase [4] (high levels, compared to influenza virus sialidase), the “inhibition by high levels of the cleavage product” value was “do not inhibit the bacterial sialidase”.
